The text below walks through data of patent US20050239841A1, “New compounds” (priority 2003, published 2005).

Where a name gives a salt, the structure may show the parent alone.

The target of this assay is T1, human MCH1R receptor (Homo sapiens, UniProt Q99705).
T1 construct: host or cells: CHO-K1
T1 sequence (Q99705 whole entry): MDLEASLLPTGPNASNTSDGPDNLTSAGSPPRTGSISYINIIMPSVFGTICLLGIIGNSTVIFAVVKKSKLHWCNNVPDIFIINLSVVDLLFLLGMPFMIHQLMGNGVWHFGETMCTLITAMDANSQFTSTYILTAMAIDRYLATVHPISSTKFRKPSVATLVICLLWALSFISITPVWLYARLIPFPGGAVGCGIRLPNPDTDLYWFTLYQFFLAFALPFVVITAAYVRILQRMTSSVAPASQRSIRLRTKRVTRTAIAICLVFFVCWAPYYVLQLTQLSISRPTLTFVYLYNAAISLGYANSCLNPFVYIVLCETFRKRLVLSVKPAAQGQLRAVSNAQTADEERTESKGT
The assay is described as follows: MCH1R receptor binding by SPA ([125I]-MCH displacement). To be noted: 0.2 nM [125I]-MCH, membranes of CHO-K1 cells expressing hMCH1 receptor, WGA SPA beads; Ki calculated from IC50. On the procedure: The compounds according to the invention were evaluated for their binding to the human MCH1R receptor by the following method:
Compounds: MCH peptide was purchased from Phoenix pharmaceuticals. (Phe^13, [^125I]Tyr^19 Melanine-Concentrating Hormone (human, mouse, rat) ([^125I]-MCH) was obtained from NEN life Science Products. Inc. Boston, Mass. Wheat germ agglutinine SPA beads (RPNQ 0001) were obtained from Amersham-Pharmacia Biotech. All other reagents used are of highest purity from different resources available. Protein Kits, Micro BCA™ Protein Assay Reagent Kit (Cat No. 23235) were purchased from Piece, Rockford, Ill., USA.
CHO-K1 cells expressing hMCH1 receptor were purchased from Euroscreen.
CHO-K1 hMCHR1 (Euroscreen, Brussels, Belgium, # ES-370-C) were cultivated in Nutrient mixture Ham's F-12 with Glutamax I (Gibco-BRL #31765-027) supplemented with 10% heat-inactivated foetal calf serum (FCS, Gibco-BRL #10108-165) and 400 μg/ml geniticin (Gibco-BRL #1140-0359). The cells were sub-cultivated twice weekly with split ratio=1:20-1:30. For membrane preparation the cells were cultured in […] and the cells were harvested when 90% confluent.
When the cells reached more than 90% confluence, dishes (500 cm^2) were rinsed twice with 20 ml PBS (Ca^2+ and Mg^2+ free). Buffer A, which contains Tris.HCl (15), MgCl2.6H2O (2), EDTA (0.3), EGTA (1) in mM with pH 7.5, 25 ml was added and cells were suspended using a window scraper. The cells were collected in 50 ml Falcon tube pre-cooled on ice and then centrifuged for 3 minutes at 1500 g at 4° C. […]
The radio labeled [^125I]-MCH was diluted with cold MCH in ratio 1:3. […] The results were calculated using Excel program and the curves were drawn using a program GraphPad Prism.
For screening of the substances the amount of the beads used was 0.25 mg/well and the amount of the membrane protein was 4 μg/well 0.2 nM of labeled MCH was used. […] The samples were counted using Microbeta counter (Wallac Trilux 1450 Micro beta counter, Wallac, Finland) for 2 minutes and the results were calculated by using the computer program Activity Base. […]
For `COc1ccc([C@@]23CC[C@@H](NC(=O)Nc4ccc(OC(F)(F)F)cc4)C[C@@H]2N(C)CC3)cc1OC` (relative stereo) [Example 70, N-[(3aS*,6R*,7aS*)-3a-(3,4-dimethoxyphenyl)-1-methyloctahydro-1H-indol-6-yl]-N′-[4-(trifluoromethoxy)phenyl]urea trifluoroacetate], the Ki (usually a dissociation constant, usually derived from enzyme kinetics or from competition with a known ligand) is 52 nM.
Turning to `CCOc1ccc([C@@]23CC[C@@H](NC(=O)Nc4ccc(F)c(F)c4)C[C@@H]2N(C)CC3)cc1OCC` (relative stereo) [Example 208, N-[(3aS*,6R*,7aS*)-3a-(3,4-diethoxyphenyl)-1-methyloctahydro-1H-indol-6-yl]-N′-(3,4-difluoro]henyl)urea trifluoroacetate], the Ki was 258 nM.
On to `C=CCN(C(=O)Nc1ccc(Cl)c(C(F)(F)F)c1)C1CCC2(c3ccc(OC)c(OC)c3)CCN(C)C2C1` (stereo not drawn) [Example 159, N-ally-N′-[4-chloro-3-(trifluoromethyl)phenyl]-N-[(3aS*,6R*,7aS*)-3a-(3,4-dimethoxyphenyl)-1-methyloctahydro-1H-indol-6-yl]urea], for which the Ki was 75 nM.
